# Test results taken from patent US9732075B2, “Benzimidazole-proline derivatives” (IDORSIA PHARMACEUTICALS LTD, priority 2012, dated 2017).
# Assays:
# human orexin-2 receptor = human orexin-2 receptor (Homo sapiens (Human), UniProt O43614); assay: In vitro assay: intracellular calcium measurements (FLIPR), antagonistic activity; type: cell-based; details: CHO cells expressing human orexin-2 receptor, orexin-A agonist, geometric mean, read-out: IC50 Ox2
# Method in brief: (§1)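 Dye-loaded CHO cells expressing either human orexin receptor are exposed to test antagonist for 120 min, then stimulated with orexin-A at 3 nM.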
# human orexin-1 receptor = human orexin-1 receptor (Homo sapiens (Human), UniProt O43613); assay: as above; type: cell-based; details: CHO cells expressing human orexin-1 receptor, orexin-A agonist, geometric mean, read-out: IC50 Ox1
# Sequence of human orexin-1 receptor (O43613 whole entry): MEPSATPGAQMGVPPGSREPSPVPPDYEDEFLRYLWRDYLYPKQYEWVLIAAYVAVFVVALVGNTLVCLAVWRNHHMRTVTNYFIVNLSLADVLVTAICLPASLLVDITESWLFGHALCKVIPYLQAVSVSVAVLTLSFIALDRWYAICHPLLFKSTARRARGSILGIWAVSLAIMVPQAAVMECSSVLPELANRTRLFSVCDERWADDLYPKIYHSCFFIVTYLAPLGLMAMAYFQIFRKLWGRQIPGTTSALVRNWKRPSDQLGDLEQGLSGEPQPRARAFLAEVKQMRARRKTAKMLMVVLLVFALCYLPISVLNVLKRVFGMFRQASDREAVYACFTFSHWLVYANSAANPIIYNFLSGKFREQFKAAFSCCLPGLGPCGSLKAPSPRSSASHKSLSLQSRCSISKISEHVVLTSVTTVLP
# Method in brief: as §1
# Sequence of human orexin-2 receptor (O43614 whole entry): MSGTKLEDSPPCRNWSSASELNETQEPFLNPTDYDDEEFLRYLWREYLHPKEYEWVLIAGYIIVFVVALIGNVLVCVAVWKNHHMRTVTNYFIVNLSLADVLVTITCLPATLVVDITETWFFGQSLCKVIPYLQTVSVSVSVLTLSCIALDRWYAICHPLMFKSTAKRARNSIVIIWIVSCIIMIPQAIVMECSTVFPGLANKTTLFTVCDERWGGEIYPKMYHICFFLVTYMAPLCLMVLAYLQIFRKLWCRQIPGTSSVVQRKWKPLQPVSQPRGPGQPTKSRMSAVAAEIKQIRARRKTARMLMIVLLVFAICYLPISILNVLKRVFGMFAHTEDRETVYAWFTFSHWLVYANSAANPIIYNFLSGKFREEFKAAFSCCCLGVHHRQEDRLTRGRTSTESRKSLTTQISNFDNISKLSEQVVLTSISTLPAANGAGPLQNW
SMILES,IC50 (human orexin-2 receptor),IC50 (human orexin-1 receptor)
CSc1ccc2nc([C@@H]3CCCN3C(=O)c3c(C)cccc3-n3nccn3)[nH]c2c1 [Ex. 1.154],21 nM,483 nM
COc1cc(C(=O)N2CCC[C@H]2c2nc3ccc(SC)cc3[nH]2)c(-n2nccn2)cc1OC [Ex. 1.155],16 nM,36 nM
COc1ccc2nc([C@@H]3CCCN3C(=O)c3cc(F)ccc3-n3nccn3)[nH]c2c1 [Ex. 1.156],29 nM,1810 nM
COc1ccc2nc([C@@H]3CCCN3C(=O)c3cc(Cl)ccc3-n3nccn3)[nH]c2c1 [Ex. 1.157],10 nM,419 nM
COc1ccc(-n2nccn2)c(C(=O)N2CCC[C@H]2c2nc3ccc(OC)cc3[nH]2)c1 [Ex. 1.158],20 nM,538 nM
COc1ccc2nc([C@@H]3CCCN3C(=O)c3cc(C#N)ccc3-n3nccn3)[nH]c2c1 [Ex. 1.159],23 nM,903 nM
COc1ccc2nc([C@@H]3CCCN3C(=O)c3ccc(C)cc3-n3nccn3)[nH]c2c1 [Ex. 1.160],5 nM,245 nM
COc1ccc2nc([C@@H]3CCCN3C(=O)c3c(C)cccc3-n3nccn3)[nH]c2c1 [Ex. 1.161],22 nM,1450 nM
COc1ccc2nc([C@@H]3CCCN3C(=O)c3cc(OC)c(OC)cc3-n3nccn3)[nH]c2c1 [Ex. 1.162],27 nM,458 nM
CSc1cccc2nc([C@@H]3CCCN3C(=O)c3cc(F)ccc3-n3nccn3)[nH]c12 [Ex. 1.163],17 nM,167 nM
CSc1cccc2nc([C@@H]3CCCN3C(=O)c3c(F)cccc3-n3nccn3)[nH]c12 [Ex. 1.164],24 nM,217 nM
CSc1cccc2nc([C@@H]3CCCN3C(=O)c3cc(Cl)ccc3-n3nccn3)[nH]c12 [Ex. 1.165],9 nM,76 nM
COc1ccc(-n2nccn2)c(C(=O)N2CCC[C@H]2c2nc3cccc(SC)c3[nH]2)c1 [Ex. 1.166],4 nM,45 nM
CSc1cccc2nc([C@@H]3CCCN3C(=O)c3cc(C#N)ccc3-n3nccn3)[nH]c12 [Ex. 1.167],15 nM,97 nM
COc1ccc(-n2nccn2)c(C(=O)N2CCC[C@H]2c2nc3cccc(SC)c3[nH]2)c1F [Ex. 1.168],57 nM,20 nM
CSc1cccc2nc([C@@H]3CCCN3C(=O)c3ccc(C)cc3-n3nccn3)[nH]c12 [Ex. 1.169],3 nM,37 nM
CSc1cccc2nc([C@@H]3CCCN3C(=O)c3c(C)cccc3-n3nccn3)[nH]c12 [Ex. 1.170],20 nM,258 nM
COc1ccc2[nH]c([C@@H]3CCCN3C(=O)c3cc(C)ccc3-n3cccn3)nc2c1 [Ex. 1.171],36 nM,2210 nM
COc1ccc2[nH]c([C@@H]3CCCN3C(=O)c3c(-n4nccn4)ccc(C)c3F)nc2c1 [Ex. 1.172],19 nM,1160 nM
COc1ccc2[nH]c([C@@H]3CCCN3C(=O)c3nc(C)ccc3-n3nccn3)nc2c1 [Ex. 1.173],54 nM,3930 nM
CSc1cccc2[nH]c([C@@H]3CCCN3C(=O)c3c(-n4nccn4)ccc(C)c3F)nc12 [Ex. 1.174],87 nM,68 nM

SMILES,IC50 (human orexin-2 receptor),IC50 (human orexin-1 receptor)
CSc1cccc2[nH]c([C@@H]3CCCN3C(=O)c3nc(C)ccc3-n3nccn3)nc12 [Ex. 1.175],76 nM,528 nM
CSc1ccc2[nH]c([C@@H]3CCCN3C(=O)c3ccccc3-n3cccn3)nc2c1 [Ex. 1.176],99 nM,2190 nM
CSc1ccc2[nH]c([C@@H]3CCCN3C(=O)c3cc(C)ccc3-n3cccn3)nc2c1 [Ex. 1.177],30 nM,842 nM
CSc1ccc2[nH]c([C@@H]3CCCN3C(=O)c3nc(C)ccc3-n3cccn3)nc2c1 [Ex. 1.178],96 nM,2680 nM
CSc1ccc2[nH]c([C@@H]3CCCN3C(=O)c3c(-n4nccn4)ccc(C)c3F)nc2c1 [Ex. 1.179],28 nM,486 nM
CSc1ccc2[nH]c([C@@H]3CCCN3C(=O)c3nc(C)ccc3-n3nccn3)nc2c1 [Ex. 1.180],50 nM,1490 nM
Cc1nc(C(=O)N2C[C@@H](F)C[C@H]2c2nc3c(C)cccc3[nH]2)c(-c2ccccc2)s1 [Ex. 2.2],317 nM,1300 nM
Cc1nc(C(=O)N2C[C@H](F)C[C@H]2c2nc3c(C)cccc3[nH]2)c(-c2ccccc2)s1 [Ex. 2.3],61 nM,67 nM
Cc1nc(C(=O)N2CC(F)(F)C[C@H]2c2nc3c(C)cccc3[nH]2)c(-c2ccccc2)s1 [Ex. 2.4],131 nM,425 nM
Cc1ccc(-n2nccn2)c(C(=O)N2C[C@H](F)C[C@H]2c2nc3c(C)c(Cl)ccc3[nH]2)c1 [Ex. 2.5],12 nM,6 nM
Cc1ccc(-n2nccn2)c(C(=O)N2CC(F)(F)C[C@H]2c2nc3c(C)c(Cl)ccc3[nH]2)c1 [Ex. 2.6],59 nM,52 nM
Cc1nc(C(=O)N2C[C@@H](F)C[C@H]2c2nc3c(C)c(Cl)ccc3[nH]2)c(-c2ccccc2)s1 [Ex. 2.7],42 nM,66 nM
Cc1nc(C(=O)N2CC(F)(F)C[C@H]2c2nc3c(C)c(Cl)ccc3[nH]2)c(-c2ccccc2)s1 [Ex. 2.8],51 nM,70 nM
Cc1nc(C(=O)N2C[C@H](F)C[C@H]2c2nc3c(C)cccc3[nH]2)c(-c2cccc(Cl)c2)s1 [Ex. 2.9],18 nM,17 nM
Cc1nc(C(=O)N2C[C@H](F)C[C@H]2c2nc3c(C)c(Cl)ccc3[nH]2)c(-c2cccc(Cl)c2)s1 [Ex. 2.10],8 nM,5 nM
Cc1ccc(-n2nccn2)c(C(=O)N2C[C@H](F)C[C@H]2c2nc3c(C)cccc3[nH]2)c1 [Ex. 2.11],124 nM,69 nM
CO[C@@H]1C[C@@H](c2nc3c(C)c(Cl)ccc3[nH]2)N(C(=O)c2cc(C)ccc2-n2nccn2)C1 [Ex. 3.2],6 nM,13 nM
CO[C@H]1C[C@@H](c2nc3c(C)cccc3[nH]2)N(C(=O)c2nc(C)sc2-c2ccccc2)C1 [Ex. 3.3],255 nM,1290 nM
CO[C@@H]1C[C@@H](c2nc3c(C)cccc3[nH]2)N(C(=O)c2nc(C)sc2-c2ccccc2)C1 [Ex. 3.4],14 nM,44 nM
CO[C@H]1C[C@@H](c2nc3c(C)c(Cl)ccc3[nH]2)N(C(=O)c2nc(C)sc2-c2ccccc2)C1 [Ex. 3.5],74 nM,109 nM
CO[C@@H]1C[C@@H](c2nc3c(C)c(Cl)ccc3[nH]2)N(C(=O)c2nc(C)sc2-c2ccccc2)C1 [Ex. 3.6],4 nM,5 nM

SMILES,IC50 (human orexin-2 receptor),IC50 (human orexin-1 receptor)
CO[C@@H]1C[C@@H](c2nc3c(C)cccc3[nH]2)N(C(=O)c2nc(C)sc2-c2cccc(Cl)c2)C1 [Ex. 3.7],5 nM,9 nM
CO[C@H]1C[C@@H](c2nc3c(C)c(Cl)ccc3[nH]2)N(C(=O)c2nc(C)sc2-c2cccc(Cl)c2)C1 [Ex. 3.8],12 nM,22 nM
CO[C@@H]1C[C@@H](c2nc3c(C)c(Cl)ccc3[nH]2)N(C(=O)c2nc(C)sc2-c2cccc(Cl)c2)C1 [Ex. 3.9],2 nM,1 nM
CO[C@@H]1C[C@@H](c2nc3ccc(Cl)c(C)c3[nH]2)N(C(=O)c2cc(Cl)ccc2-n2nccn2)C1 [Ex. 3.10],5 nM,45 nM
COc1ccc(-n2nccn2)c(C(=O)N2C[C@H](OC)C[C@H]2c2nc3ccc(Cl)c(C)c3[nH]2)c1F [Ex. 3.11],9 nM,6 nM
COc1ccc(-n2nccn2)c(C(=O)N2C[C@H](OC)C[C@H]2c2nc3ccc(Cl)c(C)c3[nH]2)c1 [Ex. 3.12],1 nM,13 nM
CO[C@@H]1C[C@@H](c2nc3ccc(Cl)c(C)c3[nH]2)N(C(=O)c2c(-n3nccn3)ccc(C)c2F)C1 [Ex. 3.13],7 nM,16 nM
CO[C@@H]1C[C@@H](c2nc3ccc(Cl)c(C)c3[nH]2)N(C(=O)c2c(C)cccc2-n2nccn2)C1 [Ex. 3.14],23 nM,674 nM
CO[C@@H]1C[C@@H](c2nc3ccc(Cl)c(C)c3[nH]2)N(C(=O)c2ccc(C)cc2-n2nccn2)C1 [Ex. 3.15],4 nM,96 nM
CO[C@@H]1C[C@@H](c2nc3ccc(Cl)c(C)c3[nH]2)N(C(=O)c2cc(C)c(C)cc2-n2nccn2)C1 [Ex. 3.16],2 nM,24 nM
CO[C@@H]1C[C@@H](c2nc3ccc(Cl)c(C)c3[nH]2)N(C(=O)c2cc(C(F)(F)F)ccc2-n2nccn2)C1 [Ex. 3.17],51 nM,368 nM
CO[C@@H]1C[C@@H](c2nc3ccc(Cl)c(C)c3[nH]2)N(C(=O)c2cc(F)ccc2-n2nccn2)C1 [Ex. 3.18],4 nM,97 nM
COc1ccc2nc([C@@H]3C[C@@H](OC)CN3C(=O)c3cc(Cl)ccc3-n3nccn3)[nH]c2c1 [Ex. 3.19],21 nM,1930 nM
COc1ccc(-n2nccn2)c(C(=O)N2C[C@H](OC)C[C@H]2c2nc3ccc(OC)cc3[nH]2)c1 [Ex. 3.20],40 nM,1860 nM
COc1ccc2nc([C@@H]3C[C@@H](OC)CN3C(=O)c3ccc(C)cc3-n3nccn3)[nH]c2c1 [Ex. 3.21],33 nM,2510 nM
COc1ccc2nc([C@@H]3C[C@@H](OC)CN3C(=O)c3cc(C)c(C)cc3-n3nccn3)[nH]c2c1 [Ex. 3.22],9 nM,576 nM
COc1ccc2nc([C@@H]3C[C@@H](OC)CN3C(=O)c3cc(F)ccc3-n3nccn3)[nH]c2c1 [Ex. 3.23],67 nM,3890 nM
CO[C@H]1CN(C(=O)c2nc(C)sc2-c2ccccc2)C(C)(c2nc3c(C)c(Cl)ccc3[nH]2)C1 (some centres unmarked) [Ex. 3.24],12 nM,5 nM
CO[C@H]1CN(C(=O)c2cc(C)ccc2-n2nccn2)C(C)(c2nc3c(C)c(Cl)ccc3[nH]2)C1 (some centres unmarked) [Ex. 3.25],7 nM,5 nM
